Source: patent US5494932A, “Sulfonic stilbene derivatives in the treatment of viral disease” (Merrell Dow Pharmaceuticals Inc., priority 1991, dated 1996)
Where two headings read alike, the source gives them in different places.

Key:
[1] = test system: HIV-1 strain GB8 in JM cells; assay: Established HIV-1 (GB8) infection of JM cells, post-infection addition: syncytia and p24 antigen; type: cell-based, HIV-1 (human T cell line JM); settings: 100 μg/ml; for activity at 100 µg/mL: Human immunodeficiency virus 1, 75 h
Description: The stilbene disulfonic acids blocked HIV-1 replication when the compounds were added within 2 hours of virus adsorption, i.e., prior to virus penetration, and the cells were cultured in the presence of the inhibitors. These compounds were next examined for antiviral activity at later stages of the infection process. At a MOI of 0.01 infectious units/cell (GB8 virus), viral glycoproteins appear at the surface of JM cells by 24 hours post-infection (p.i.) and initiate fusion with neighboring CD4^+ cells; the syncytial numbers show a good correlation with the production of cell-free virus (Tyms et al., 1990).
In post-treatent experiments, cells were first infected with HIV-1 strain RF or GB8 for 2 hours at 37° C. at a MOI of 0.01 and allowed to grow for either 24 or 43 hours before replating into fresh growth medium containing 100 μg/ml of DIDS, H2 DIDS or SITS. Syncytia were then scored at 52 and 68 hours p.i. in triplicate, and p24 viral core antigen in culture fluids were assayed at 75 hours p.i. as described above.
Protocol: JM cells were infected with HIV at a multiplicity of infection of 0.00025 syncytial forming units per cell. Virus adsorption was at room temperature for one hour. The cells were then washed three times and distributed in wells of a tissue culture plate at a concentration of 2×10^5 cells/well. Either DIDS, SITS or H2 DIDS (all at 100 μg/ml) were added to wells at 0, 24, 43 and 51 hours post-infection. As virus controls some wells had no drug added. Syncytia were scored at 43, 52 and 68 hours post-infection. The cell-free supernatant fluids of the virus control wells were harvested after 33, 43, 51, 68 and 75 hours post-infection. All other wells were harvested 75 hours post-infection. The supernatant fluid was then assayed for p24 viral core antigen.

[2] = test system: HIV-1 strain GB8 in JM cells; assay: as above; type: cell-based, HIV-1 (human T cell line JM); settings: 100 μg/ml
[3] = test system: HSV 2; assay: Plaque reduction assay, HSV 2; type: cell-based
Description: Protocol: Plaque reduction assay. Treatment after adsorption during incubation.

[4] = test system: HIV-1 strain RF in C8166 cells; assay: Acute HIV-1 (RF) infection of C8166 cells: syncytial and p24 antigen assays; type: cell-based, HIV-1 (human C8166 cells); settings: Human immunodeficiency virus 1, RF strain in C8166 cells, read-out: P24 Antigen % Virus Control (values in parenthesis)
Description: When evaluated in the human T cell line JM acutely infected with the GB8 virus, DIDS, H2 DIDS and SITS (Table I) suppressed virus-induced multinucleated giant cell formation (syncytia). […] We also examined the antiviral properties of these compounds in a second host-cell/virus system, i.e., the highly CD4+ C8166 cells infected with the Haitian strain of HIV-1, RF.
The cell lines used were the semi-mature human lymphoblastoid leukemia T cell line JM, the human T-lymphoblastoid C8166 cell line, the human cutaneous T cell lymphoma line H9 and, the human T cell transformed line MT-4. Stocks of HIV-1 strains RF and GB8 (kindly provided by Dr. Graham Farrar, Center for Applied Microbiological Research, Porton Dawn, England) were prepared from chronically infected H9 cells and acutely infected JM cells, respectively. Virus stocks consisted of cell-free growth medium (RPMI 1640 plus 10% fetal calf serum) containing freshly shed virus. Virus titres were determined by a standard plaque reduction assay.
Virus stocks (strains RF or GB8) were diluted into growth medium containing various concentrations of DIDS, H2 DIDS or SITS. The required number of cells were then immediately added and the virus allowed to absorb for 2 hours at 37° C. to give a multiplicity of infection (MOI) of 0.001 infectious units/cell. The virus-infected cells were pelleted, washed three times in phosphate buffered saline (PBS), and resuspended in fresh growth medium containing the appropriate concentrations of stilbene disulfonic acids. Cells were then distributed into 24-well culture plates (Falcon) and assayed as described below for virus infection. Alternatively, cells were first infected with HIV-1 (strains RF or GB8) for 2 hours at 37° C. at the above MOI. After extensive washing, cells were replated into fresh growth medium containing various concentrations of stilbene disulfonic acids. In the above experiments, syncytia were scored between 2 and 4 days postinfection (p.i.) in triplicate using an Olympus CK2 inverted microscope. The culture fluids were recovered between 3 and 5 days p.i., clarified by low speed centrifugation (2,000 rpm) for 5 minutes and the level of HIV-1 p24 core antigen in the supernatants was determined by p24 antigen ELISA (Coulter). The concentrations of stilbene disulfonic acids giving 50% inhibition of HIV-1 growth (IC50) were determined from the dose-response curves by linear regression analysis.

**Q.** For O=S(=O)(O)c1cc(N=C=S)ccc1CCc1ccc(N=C=S)cc1S(=O)(=O)O [H2 DIDS, 4,4'-diisothiocyanatodihydrostilbene-2,2'-disulfonic acid], which “Mean Syncytia 68 hrs” value ([1]; time of addition 0h) is on record?
**A.** 0

**Q.** And the “P24 Antigen 75 h” value ([1]; time of addition 0 h p.i.)?
**A.** Neg

**Q.** And the “Syncytia at 52h” value ([1]; time of addition 0 h p.i.)?
**A.** 0

**Q.** And the “Syncytia at 68h” value ([1]; time of addition 0 h p.i.)?
**A.** 0

**Q.** What about the “Mean Syncytia 68 hrs” value ([1]; time of addition 24h) of the same compound?
**A.** 0

**Q.** And the “P24 Antigen (75 hours post-infection)” value ([1]; time of addition 24 hours)?
**A.** 2363 pg/mL

**Q.** What about the “P24 Antigen 75 h” value ([1]; time of addition 24 h p.i.) of the same compound?
**A.** 2.4 ng/mL

**Q.** And the “Syncytia at 52h” value ([1]; time of addition 24 h p.i.)?
**A.** 0

**Q.** And the “Syncytia at 68h” value ([1]; time of addition 24 h p.i.)?
**A.** 0

**Q.** And the “Mean Syncytia 51 hrs” value ([1]; time of addition 43h)?
**A.** 19

**Q.** What about the “Mean Syncytia 68 hrs” value ([1]; time of addition 43h) of the same compound?
**A.** 3

**Q.** And the “P24 Antigen (75 hours post-infection)” value ([1]; time of addition 43 hours)?
**A.** 16412 pg/mL

**Q.** What about the “P24 Antigen 75 h” value ([1]; time of addition 43 h p.i.) of the same compound?
**A.** 16.4 ng/mL

**Q.** What about the “Syncytia at 52h” value ([1]; time of addition 43 h p.i.) of the same compound?
**A.** 19

**Q.** What about the “Syncytia at 68h” value ([1]; time of addition 43 h p.i.) of the same compound?
**A.** 3

**Q.** What about the “Mean Syncytia 68 hrs” value ([1]; time of addition 51h) of the same compound?
**A.** 15

**Q.** And the “P24 Antigen (75 hours post-infection)” value ([1]; time of addition 51 hours)?
**A.** 42020 pg/mL

**Q.** What about the activity at 100 µg/mL ([1]; time of addition 0 hours, read-out: P24 Antigen (75 hours post-infection), %) of the same compound?
**A.** < 1%

**Q.** And the activity at 100 µg/mL ([1]; time of addition 0 h p.i., read-out: P24 Antigen 75 h, % (drug-free medium 100%))?
**A.** 0%

**Q.** And the activity at 100 µg/mL ([1]; time of addition 24 hours, read-out: P24 Antigen (75 hours post-infection), %)?
**A.** 2%

**Q.** What about the activity at 100 µg/mL ([1]; time of addition 24 h p.i., read-out: P24 Antigen 75 h, % (drug-free medium 100%)) of the same compound?
**A.** 2%

**Q.** And the activity at 100 µg/mL ([1]; time of addition 43 hours, read-out: P24 Antigen (75 hours post-infection), %)?
**A.** 14%

**Q.** And the activity at 100 µg/mL ([1]; time of addition 43 h p.i., read-out: P24 Antigen 75 h, % (drug-free medium 100%))?
**A.** 14%

**Q.** What about the activity at 100 µg/mL ([1]; time of addition 51 hours, read-out: P24 Antigen (75 hours post-infection), %) of the same compound?
**A.** 36%

**Q.** What about the “Mean Syncytia 51 hrs” value ([2]; time of addition 0h) of the same compound?
**A.** 0

**Q.** And the “Mean Syncytia 51 hrs” value ([2]; time of addition 24h)?
**A.** 0

**Q.** And the Plaque counts ([3]; 0.1 μg/ml, first count)?
**A.** 35

**Q.** What about the Plaque counts ([3]; 0.1 μg/ml, second count) of the same compound?
**A.** 35

**Q.** What about the Plaque counts ([3]; 1 μg/ml, first count) of the same compound?
**A.** 23

**Q.** And the Plaque counts ([3]; 1 μg/ml, second count)?
**A.** 31

**Q.** What about the Plaque counts ([3]; 1 μg/ml, third count) of the same compound?
**A.** 24

**Q.** And the Plaque counts ([3]; 10 μg/ml, first count)?
**A.** 26

**Q.** And the Plaque counts ([3]; 10 μg/ml, second count)?
**A.** 19

**Q.** And the Plaque counts ([3]; 10 μg/ml, third count)?
**A.** 21

**Q.** And the Plaque counts ([3]; 100 μg/ml, first count)?
**A.** 0

**Q.** And the Plaque counts ([3]; 100 μg/ml, second count)?
**A.** 0

**Q.** And the Plaque counts ([3]; 100 μg/ml, third count)?
**A.** 0

**Q.** And the activity at 0.1 µg/mL ([3]; read-out: Mean % VC (plaques))?
**A.** 63%

**Q.** And the activity at 1 µg/mL ([3]; read-out: Mean % VC (plaques))?
**A.** 46%

**Q.** And the activity at 10 µg/mL ([3]; read-out: Mean % VC (plaques))?
**A.** 43%

**Q.** What about the activity at 100 µg/mL ([3]; read-out: Mean % VC (plaques)) of the same compound?
**A.** 0%

**Q.** What about the activity at 50 µg/mL ([4]; 50 µg/mL) of the same compound?
**A.** > 100%

**Q.** What about the activity at 100 µg/mL ([4]; 100 µg/mL) of the same compound?
**A.** 59%

**Q.** What about the activity at 200 µg/mL ([4]; 200 µg/mL) of the same compound?
**A.** 2.5%
